Measurements reported in patent publication US20090233999A1, “COMPOSITIONS AND THERAPEUTIC METHODS INVOLVING ISOFLAVONES AND ANALOGUES THEREOF” (NOVOGEN RESEARCH PTY LTD, priority 1999, published 2009).

What was measured:
[1] = DPPH free radical scavenging; settings: DPPH 0.1 mM, 20 minutes; read-out: Free radical scavenging ability EC50
Procedure: The antioxidant (free radical trapping) activity of test compounds was assessed using the stable free radical compound 2,2-diphenyl-1-picrylhydrazyl (DPPH). A stock solution of DPPH was prepared at a concentration of 0.1 mM in ethanol and mixed for 10 minutes prior to use. Test compounds at a concentration of 100 μM were reacted with DPPH for 20 minutes, after which time the absorbance at 517 nm was determined and the change in absorbance compared to a reagent blank (DPPH with ethanol alone). A dose response curve was produced for those compounds with free radical scavenging activity (ΔAbs>0.3) at 100 μM. The IC50 value was estimated as the concentration of test compound that caused a 0.6 change in absorbance (with 1.2 absorbance units representing total scavenging of the DPPH radical).

[2] = tested on: COX (PGE2 and TXB2 synthesis); assay: LPS-induced prostanoid (PGE2, TXB2) synthesis in human monocytes; format: cell-based; settings: LPS 200 ng/mL, 18 hrs, data at 10 μM
Procedure: Human peripheral blood monocytes were isolated from buffy coats by lymphoprep gradient separation followed by counter-current centrifugal elutriation. Test compounds were dissolved in DMSO and added to fresh monocytes to achieve concentrations of 0, 10 and 100 μM. After 30 min, lipopolysaccharide (LPS) was added to achieve a final concentration of 200 ng/mL. After incubation for 18 hrs at 37° C. in 5% CO2, supernatants were removed and PGE2 and TXB2 (the stable hydrolysis product of TXA2) production were measured by radioimmunoassay (RIA). ANOVA followed by Newman-Keuls multiple comparisons test was used to examine differences between doses and the control values.

5-LO (LTB4 synthesis) = assay: Synthesis of LTB4 and metabolites by neutrophils (lipoxygenase); format: cell-based; settings: Neutrophil; calcium ionophore-stimulated human neutrophils
Procedure: The pathway for LTB4 synthesis involves initial release of AA from phospholipids by a Ca-dependent PLA2. The free AA is then oxygenated at by 5-LO (requiring enzyme activation by FLAP) to generate an epoxide intermediate (LTA4). LTA4 is then converted to LTB4 by LTA4 hydrolase. LTB4 is metabolised (and deactivated) by a cytochrome P-(CYP) 450 […] to produce 20-hydroxy and 20-carboxy metabolites. These metabolites are also measured in the HPLC assay.
Neutrophils were isolated from citrated human venous blood to >90% purity by centrifugation through Ficoll, dextran sedimentation and lysis of erythrocytes. Cells were washed in HEPES buffered Hanks solution (HBHS) and then suspended at 4.5 million cells/mL in HBHS containing 0.1% bovine serum albumin (HBHS+BSA).
Experiments had been carried out previously to optimise the stimulation of neutrophils by calcium ionophore. At 37° C., cells were incubated with the test compound in 10 μL DMSO for 5 min before addition of 100 μL of 25 ng/μL calcium ionophore (free acid form, Sigma) with 0.5% DMSO in HBHS+BSA. The cells were incubated for 10 min then pelleted by centrifugation at 4° C. for 5 min and the cell free supernatant used to quantitate the levels of LTB4 and its metabolites.
To each 900 μL aliquot of the supernatant, 25 μL of prostaglandin B2 (PGB2) 2.5 ng/μL in ethanol was added as internal standard. The solution was acidified to pH≦3 with 2M formic acid and the mixture extracted with 2 mL ethyl acetate and vigorous vortexing. The organic layer was collected and dried under nitrogen in a glass vial before reconstituted in 50 μL of the reconstitution solution (water:methanol:acetonitrile at 2:1:1).
Analysis was carried out using an HPLC system with a 125-4 LiChrospher®100 RP-18 (5 μm) column (Agilent Technologies) and a gradient system adapted from a published method to separate LTB4, its oxidation products 20-hydroxy LTB4 (20-OH-LTB4) and 20-carboxy LTB4 (20-COOH-LTB4), as well as PGB2. At 1 ml/min flow rate, a combination of three different mobile phase solutions was used:
A (water:methanol:acetonitrile:trifluoroacetic acid at 80:40:40:0.1, pH=3 with Et3N), B (methanol:acetonitrile at 1:1), and C (methanol).
UV absorbance was monitored at 270 nm, and LTB4 and its metabolites were quantitated by comparison of peak areas with that of internal standard and a standard curve prepared earlier.

VCAM-1 = assay: TNFα-induced VCAM expression on HAECs (ELISA); format: cell-based, human; settings: 10 μM
Procedure: Inhibition of TNFα-stimulated endothelial cell activation by compounds was assessed by measuring surface expression of cell adhesion molecules with an ELISA. Human arterial endothelial cells (HAECs) in growth medium (Cell Applications Inc.) were seeded into 96-well plates at a density of 10,000 cells per well. Plates were incubated overnight at 37° C. in a humidified incubator to allow for cells to become confluent. On the morning of the experiment, TNFα (10 μl, 2 ng/ml) was added to each well, which contained 100 μl of medium. Compounds were diluted in DMSO-containing medium (2.5% DMSO) to give a compound concentration of 100 and 300 μM. Compounds were added to wells so that final concentrations were 10 and 30 μM. DMSO-containing medium alone was added to zero concentration control wells. All samples were measured in quadruplicate (4 wells per treatment).
After incubation with compound for 4 hours, medium was removed and cells were probed with either non-specific IgG or specific mouse antibodies against VCAM, ICAM or E-selectin (BD Biosciences—0.1 μg in 100 μL buffered saline with 10% heat-inactivated human serum). Adhesion molecule expression was detected by addition of sheep anti-mouse antibody/horseradish peroxidase conjugate. Plates were allowed to stand for 30 minutes—monolayers were then washed, and sheep anti-mouse antibody/horseradish peroxidase conjugate (1:500 in 100 μL HBSS with 10% heat-inactivated human serum and 0.05% Tween 20) was added and left for 30 minutes. After further washing, 150 μL ABTS substrate (Kirkegaard and Perry Laboratories) was added to each well and allowed to develop for 15 minutes. Optical density was measured at 405 nm with an ELISA reader (Titertek Multiscan, Flow Laboratories).

TNFα = assay: LPS-induced TNFα synthesis in human monocytes; format: cell-based; settings: 100 μM
Procedure: Test compounds (in DMSO) at 100, 10, and 1 μmol/ were incubated with monocytes at 37° C. for 30 min after which LPS was added (200 ng/ml) and cells were incubated in triplicate for 18 h at 37° C. in 5% CO2. […], supernatants were removed and TNFα measured by ELISA previously described.

SMILES | EC50 [1] | COX inhibitory activity (inhibition of PGE2 and TXA2 production) [2] | IC50 (5-LO (LTB4 synthesis)) | TNFα-induced VCAM expression (VCAM-1) | synthesis of TNFα (TNFα)
Oc1ccc2c(c1)OCC(c1ccc(Br)cc1)=C2 [Cpd. 21, 4′-Bromo-7-hydroxyisoflav-3-ene] | 43 µM | – | – | – | –
COc1cccc(C2=Cc3ccc(O)cc3OC2)c1 [Cpd. 16, 7-Hydroxy-3′-methoxyisoflav-3-ene] | 45 µM | significant COX inhibitory activity | 2.2 µM | intermediate activity | –
COc1ccc(C2=Cc3ccc(O)c(C)c3OC2)cc1OC [Cpd. 19, 7-Hydroxy-3′,4′-dimethoxy-8-methylisoflav-3-ene] | 74 µM | significant COX inhibitory activity | 0.3 µM | significantly inhibited | inhibited
Cc1c(O)ccc2c1OCC(c1cccc(O)c1)=C2 [Cpd. 14, 3′,7-Dihydroxy-8-methylisoflav-3-ene] | 47 µM | significant COX inhibitory activity | < 0.1 µM | – | inhibited
Oc1ccc(C2=Cc3ccc(O)c(Br)c3OC2)cc1 [Cpd. 20, 4′,7-Dihydroxy-8-bromoisoflav-3-ene] | 24 µM | significant COX inhibitory activity | 0.9 µM | significantly inhibited | –
COc1ccc(C2=Cc3ccc(O)cc3OC2)cc1OC [Cpd. 18, 7-Hydroxy-3′,4′-dimethoxyisoflav-3-ene] | 48 µM | significant COX inhibitory activity | 0.5 µM | significantly inhibited | inhibited
